Results published in patent US6028102A, “Anticonvulsant drugs and pharmaceutical compositions thereof” (priority 1998, dated 2000).
“Also recorded” adds a separate entry of the source.

Tests used:
[1] = maximal electroshock (MES) test, ip to mice; assay type: in vivo; settings: for ED50: Mus musculus
Experimental: (§1) Screening of Anticonvulsant Activity
(§2) Compounds I-XI were screened in carworth farm #1 mice (ip--in a volume of 0.01 mL/g of body weight) and sprague-Dawley rats (po--in a volume of 0.004 mL/g of body weight) for their anticonvulsant activity and neurotoxicity by the NIH epilepsy Branch [Porter et al, 1984]. The screening procedure involved the following:
(§3) 1) the maximal electroshock (MES) test, which measures seizure spread; 2) the subcutaneous pentylenetetrazol test (sc Met test) which measures seizure threshold; and 3) the rotored ataxia test which assesses neurotoxicity.
Anticonvulsant activity and neurotoxicity of N-acetyl, N'-
benzylglycinamide (VII) and N-benzyloxycarbonylglycinamide
(IX) following ip administration to mice in comparison to
phthaloylglycinamide and N-valproylglycinamide^a.
MES Maximal electroshock.
(§4) ED50 - Effective dose in 50% of the test animals.

[2] = subcutaneous pentylenetetrazol test (sc Met), ip to mice; assay type: in vivo
Experimental: as §1, §2, §3, §4

[3] = rotored ataxia test (neurotoxicity), ip to mice; assay type: in vivo; settings: for TD50: mouse, in vivo, ip
Experimental: as §1, §2, §3
TD50 - Neurotoxic dose in 50% of the test animals.

[4] = Screening of anticonvulsant activity; assay type: in vivo, mice; settings: for anticonvulsant activity in words: overall finding of the study
Experimental: as §1, §2, §3
Applicants therefore decided to derivatize glycinamide and the above dipeptides by synthesizing their N-acetyl and N'-benzyl derivatives (compounds IV-VIII). […] Therefore, this compound was further analyzed quantitatively and its ED50 data and protective indices in comparison to phthaloyl glycinamide and valproyl glycinamide--TV 1901 [17] are presented in Table 2. As a consequence of their anticonvulsant activity, the pharmacokinetics of compounds VII and IX were investigated following iv administration (400 mg) to six dogs, and the mean plasma levels of compounds VII and IX are presented in FIGS. 1 and 2, respectively.

[5] = Pharmacokinetic analysis following iv administration to dogs; assay type: in vivo; settings: for clearance: CL
Experimental: The experiments were carried out on six male dogs (mongrels), ranging in weight between 18 and 22 kg. In a randomized cross over design, each dog was injected intravenously (in 1.5 mL of DMSO) with a dose of 400 mg of N-acetyl,N'-benzylglycinamide (VII), 404 mg (on dose equivalent to 400 mg of compound VII) of Z-glycinamide (IX) and 406 mg of Z-glycine (VIII). Urine was collected systematically for 12 hours after dosing, by means of an indwelling catheter.
Venous blood samples (6 mL) were collected via an indwelling catheter (from the cephalic vein) at specified intervals following injection (0, 5, 10, 20, 30, 45 minutes and 1, 1.5, 2, 2.5, 3, 4, 5, 6, 7, 8, 10 and 12 hours respectively). The plasma was then immediately separated by centrifugation at 3000 g for 15 minutes and stored at -20° C. Before each assay, the plasma was allowed to reach room temperature, vortexed, centrifuged and the residual clot removed.
Urine samples were collected via a urine catheter at specified intervals following injection (0, 1, 2, 3, 4, 5, 6, 7, 8, 9, 10 and 12 hours respectively), the samples volume were measured and the urine samples were stored at -20° C. Plasma and urine levels of compounds VII, VIII and IX were then assayed by a HPLC assay described herein below.
HPLC Assay for Monitoring N-acetyl,N'-benzylglycinamide (VII) and N-benzyloxycarbonylglycinamide (IX) in Dog Plasma and Urine
Plasma samples are allowed to reach room temperature, vortexed and centrifuged. The plasma was then assayed as follows:
To 0.5 mL of plasma, 10 μg of an internal standard (N-benzyl-oxycarbonylglycinamide (IX)) and 4 mL of tert-butylmethylether were added. The mixture was vigorously vortexed for 30 seconds, centrifuged for 10 minutes at 3000 g, the organic phase was separated and evaporated to dryness (using a vortex evaporator). To the residue, 80 μl of methanol were added, the mixture was vortexed and 30 μl were injected into the HPLC (Schimadzu SCL-10A with a UV-visible detector model SPD-10A).
Urine samples are allowed to reach room temperature, vortexed and centrifuged. The urine was then assayed as follows:
To 0.25 mL of urine, 10 μg of internal standard (N-benzyl-oxycarbonylglycinamide (IX)), 100 μl of hydrochloric acid solution (1 N) and 4 mL of tert-butylmethylether were added. The mixture was vigorously vortexed for 30 seconds and centrifuged for 10 minutes at 3000 g, the organic phase was separated and transferred to another test tube containing 0.5 mL of sodium hydroxide solution (1N), the mixture was vigorously vortexed for 30 seconds, centrifuged for 10 minutes at 3000 g, the organic phase was separated and evaporated to dryness (using a vortex evaporator). To the residue, 80 μl of methanol were added, the mixture was vortexed and 30 μl were injected into the HPLC.
HPLC conditions: HPLC column; Hypersil ODS (C-18) 5μ, 4.6×150 mm; Wavelength: 258 nm; Mobile phase: 60% water, 40% methanol and 0.01% trifluoroacetic acid.
The same assay was used for monitoring N-benzyloxycarbonyl-glycinamide (IX) in dog plasma and dog urine using N-acetyl,N'-benzylglycinamide as an internal standard.
HPLC Assay for Monitoring Z-glycine (VIII) in Dog Plasma and Urine
To 0.5 mL of plasma, 10 μg of internal standard (Z-GABA), 100 μl of hydrochloric acid solution (1N) and 5 mL of tert-butylmethylether were added. The mixture was vigorously vortexed for 30 seconds, centrifuged for 10 minutes at 3000 g, the organic phase was separated and evaporated to dryness (using a vortex evaporator). To the residue, 100 μl of mobile phase were added, the mixture was vortexed and 30 μl were injected to the HPLC.
Urine samples was allowed to reach room temperature, vortexed and centrifuged. The urine was then assayed as follows:
To 0.1 mL of urine, 30 μg of internal standard (Z-GABA) and 5 mL of tert-butylmethylether were added. The mixture was vigorously vortexed for 30 seconds, centrifuged for 10 minutes at 3000 g, the organic phase was separated off. […]

[6] = Blood stability study in dog blood; assay type: in vitro ADME
Experimental: Blood samples (4 mL) were then collected at the following times: 0, 1, 2, 3, 4, 5 and 6 hours. Plasma was immediately separated and the compounds concentrations in the plasma assayed by HPLC.

[7] = Partitioning study, blood-plasma concentration ratio; assay type: in vitro ADME; settings: dog blood, 25° C., 5-40 mg/L
Experimental: The blood-plasma concentration ratio of compounds VII and IX (partitioning study) was carried out at room temperature (25° C.) by spiking known amounts of the compound in six samples of fresh blood taken from a dog prior to drug administration. N-acetyl, N'-benzylglycinamide and Z-glycinamide concentrations were 5, 10, 15, 20, 30 and 40 mg/L. Each blood sample was centrifuged immediately after spiking and the separation of the plasma was carried out according to the procedure described hereinabove. Plasma levels of the two compounds VII and IX were determined by HPLC.

[8] = Blood-brain-barrier crossing after iv injection to rats; assay type: in vivo; settings: 25 mg
Experimental: (§5) In two separate experiments cold (unlabeled) Z-glycinamdie and Z-glucine were injected intravenously to male rats. For the experiments, the two compounds were dissolved in 0.2 mL of DMSO and were injected at a dose of 25 mg. Blood samples (8 mL each) were collected from the ascending vena cava of an individual rat at 5, 10, 20, 30, 45, 60, 90, 120, 150, 180, 240, 300, 360 and 480 minutes after administering the drug dose. Three rats were sacrificed for each of the aforementioned time measurements and the plasma or tissue obtained from each rat for each time point was averaged. Plasma was immediately separated by centrifugation at 3000 g for 15 minutes and stored at -20° C. until analyzed. Brain and liver were quickly removed at the same time intervals under light ether anesthesia, the excised tissues were immersed in liquid nitrogen for a few minutes and stored at -70° C. until analyzed. Four rats were kept in metabolic cages and the cumulative urine was collected from each rat for 480 minutes after dosing.

[9] = Metabolism and urinary excretion in rats; assay type: in vivo; settings: iv
Experimental: as §5
In rats […] of the N-benzyloxycarbonylglycinamide (IX) dose administered is metabolized to Z-glycine and excreted in the urine with the remaining 15% excreted as N-benzyloxycarbonylglycinamide (IX).

Stability in dog plasma = assay type: in vitro ADME; settings: 37° C. and 20° C.
[10] = mice; Kohn et al 1988, 1990, 1991; Conley and Kohn, 1987; cited from earlier work
[11] = 6 hours at physiological conditions (37° C.)

Compound	PI, MES (Protective index, ratio of TD50 to ED50) [1]	ED50 [1]	TD50 [3]	anticonvulsant activity in words [4]	CL ([5]; dog, in vivo)	half-life ([5]; dog, in vivo)	hepatic extraction ratio ([5]; dog, in vivo)	clearance ([5]; dog, in vivo)	MRT ([5]; dog, in vivo, MRT)	Vd ([5]; dog, in vivo, VSS)	Vd ([5]; dog, in vivo, Vss)	stability in dog blood [6, 11]	also measured
NC(=O)CNC(=O)OCc1ccccc1 [IX, N-benzyloxycarbonylglycinamide]	5.0	46 mg/kg	230 mg/kg	showed anticonvulsant activity in mice; also recorded: active	10.7 ± 4.3 L/h	2.3 ± 1.3 h	0.02	183 mL/min	3.3 ± 1.8 h	33 ± 10 L	33 ± 10 L	stable	PI, sc Met (Protective index, ratio of TD50 to ED50) [2]: 2.4; ED50 ([2]; Mus musculus): 95 mg/kg; metabolised ([5]; dog, in vivo): 80 ± 14%; pharmacokinetics and elimination in words ([5]; dogs): mainly metabolized to Z-glycine; also recorded: eliminated from the body mainly by metabolism; pharmacokinetics and elimination in words ([5]; dogs, listed as Z-glycinamide): mainly metabolized to the inactive Z-glycine; plasma to blood ratio [7]: 0.95±0.05; crossing of the blood-brain-barrier [8]: crossed the blood-brain-barrier more readily than does Z-glycine; dose metabolized to Z-glycine and excreted in the urine ([9]; rat, in vivo, 480 min): 75%; site of metabolism ([9]; rats): occurs primarily in the liver
CC(=O)NCC(=O)NCc1ccccc1 [compound VII, N-Acetyl,N'-benzylglycinamide]	2.3	88 mg/kg	> 200 mg/kg	active	6.8 ± 0.84 L/h	2.1 ± 0.4 h	0.0125	107 mL/min	3.3 ± 0.8 h	21 ± 4 L	20 ± 4 L	unstable	neurotoxic signs ([3]; at a dose as high as 300 mg/kg): did not show neurotoxic signs; anticonvulsant activity ([4]; ip administration of 100 mg/kg to mice): showed anticonvulsant activity; MRT ([5]; dog, in vivo): 3.0 ± 0.6 h; pharmacokinetics and elimination in words ([5]; dog, in vivo): eliminated from the body mainly by metabolism; t1/2 ([5]; dog, in vivo): 2.1 ± 0.5 h; Vd ([5]; dog, in vivo, Vβ): 19 ± 6 L; stability in dog blood ([6]; 20° C.): unstable; stability in dog plasma (Stability in dog plasma): stable; anticonvulsant activity in MES test [10]: active at a higher dose of 300 mg/kg
